Test results from patent US12365674B2, “Inhibitors of histone deacetylase useful for the treatment or prevention of HIV infection” (Merck Sharp & Dohme LLC, priority 2019, dated 2025).
pIC50: −log10 of the molar value.

Biological target: T1, HDAC6 (Homo sapiens, UniProt Q9UBN7)
T1 sequence (Q9UBN7 1-1215): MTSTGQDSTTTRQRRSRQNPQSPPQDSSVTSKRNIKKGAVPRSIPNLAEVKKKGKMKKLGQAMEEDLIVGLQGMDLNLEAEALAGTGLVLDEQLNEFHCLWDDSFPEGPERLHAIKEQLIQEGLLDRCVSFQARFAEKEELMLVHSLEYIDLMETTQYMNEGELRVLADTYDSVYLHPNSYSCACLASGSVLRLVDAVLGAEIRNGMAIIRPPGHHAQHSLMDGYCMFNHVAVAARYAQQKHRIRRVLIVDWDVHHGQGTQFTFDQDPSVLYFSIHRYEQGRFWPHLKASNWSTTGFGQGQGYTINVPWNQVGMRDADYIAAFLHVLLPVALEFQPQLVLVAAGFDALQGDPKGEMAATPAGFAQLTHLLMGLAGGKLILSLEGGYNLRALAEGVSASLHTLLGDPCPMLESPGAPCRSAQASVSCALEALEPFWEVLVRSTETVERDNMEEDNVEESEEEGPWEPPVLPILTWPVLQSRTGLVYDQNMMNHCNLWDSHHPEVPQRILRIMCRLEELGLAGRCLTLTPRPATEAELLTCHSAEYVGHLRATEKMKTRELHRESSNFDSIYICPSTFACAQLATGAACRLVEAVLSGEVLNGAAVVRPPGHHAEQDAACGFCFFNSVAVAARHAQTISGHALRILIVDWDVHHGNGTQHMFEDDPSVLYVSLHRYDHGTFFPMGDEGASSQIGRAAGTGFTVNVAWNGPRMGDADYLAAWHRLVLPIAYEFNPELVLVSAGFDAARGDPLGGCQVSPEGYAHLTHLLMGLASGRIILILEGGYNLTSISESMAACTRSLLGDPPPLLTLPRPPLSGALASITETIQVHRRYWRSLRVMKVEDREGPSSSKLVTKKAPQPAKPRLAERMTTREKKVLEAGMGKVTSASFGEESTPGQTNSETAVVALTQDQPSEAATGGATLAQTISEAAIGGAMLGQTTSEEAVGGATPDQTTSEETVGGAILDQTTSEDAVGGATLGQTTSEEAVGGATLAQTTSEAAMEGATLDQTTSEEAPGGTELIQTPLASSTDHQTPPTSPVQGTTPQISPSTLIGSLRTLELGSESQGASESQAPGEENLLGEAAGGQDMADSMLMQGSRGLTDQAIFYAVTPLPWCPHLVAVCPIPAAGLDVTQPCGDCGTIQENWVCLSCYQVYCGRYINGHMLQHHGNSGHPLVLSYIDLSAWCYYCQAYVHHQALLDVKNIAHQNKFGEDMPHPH
Assay: Human HDAC enzyme inhibitor Fluor-de-Lys assay, HDAC6
Assay type: biochemical
Conditions: 1.3 nM enzyme, 2.5 μM substrate BML-KI104, 3 h pre-incubation, 60 min reaction; read-out: HDAC6_IC50
Text: Recombinant human HDAC8 (catalog number BML-SE145-0100) and HDAC10 (catalog number BML-SE559-0050) enzymes, HDAC substrates BML-KI104 and BML-KI178, and HDAC developer solutions BML-KI105 and BML-KI176 were purchased from Enzo Life Sciences (Farmingdale, NY). Recombinant human HDAC5 and HDAC11 were purchased from BPS Bioscience (San Diego, CA)(catalog numbers 50045 and 50021). Substrate Boc-Lys(TFA)-AMC was obtained from Bachem (Bupendorf, Switzerland) (catalog number 1-1985). HDAC inhibitor suberoylanilide hydroxamic acid (SAHA) was obtained from Indofine (Hillsborough Township, NJ) and trichostatin A (TSA) was obtained from Sigma-Aldrich (St. Louis, MO). […] HEPES pH 8.0 was obtained from Boston BioProducts (Ashland, MA), Tween-20 from Fisher Scientific (Hampton, NH)(catalog number BP337), TCEP from Calbiochem and 7.5% bovine serum albumin (BSA) from Life Technologies (Carlsbad, CA) (catalog number 15260037). 384-well, black assay plates were obtained from Corning (Corning, NY) (catalog number 3575).
The histone deacetylase activities of HDAC1, HDAC2, HDAC3, HDAC6, and HDAC8 were measured in modified Fluor-de-Lys assays in 384-well format. In this assay, HDAC enzymes are initially incubated with an ε-acetyl (or -trifluoroacetyl)-L-lysine-containing substrate with a C-terminal amide having aminomethylcoumarin as the amine component. HDACs cleave the ε-acetyl group, rendering the resulting product susceptible to AMC cleavage by trypsin. The released AMC is then detected by its fluorescence.
The HDAC 1, 2 assays employed buffer A, which contained 20 mM HEPES, pH 8.0, 1 mM MgCl2, 137 mM NaCl, 2.7 mM KCl, 0.05% BSA. The HDAC3/SMRT assay employed buffer B, consisting of 20 mM HEPES, pH 8.0, 1 mM MgCl2, 50 mM NaCl, 2.7 mM KCl, 0.05% BSA, 0.005% Tween 20, and 10 μM IP4. The HDAC6 assay employed buffer C, consisting of 20 mM HEPES, pH 8.0, 1 mM MgCl2, 137 mM NaCl, 2.7 mM KCl, 0.5 mM TCEP (Calbiochem) and 0.05% BSA. The HDAC8 assay employed buffer D, consisting of 20 mM HEPES, pH 8.0, 1 mM MgCl2, 100 mM NaCl, 20 mM KCl, 0.1% n-octyl-β-D-glucoside (Anatrace, Maumee, OH) and 0.05% BSA. All steps were performed at room temperature (23° C.). The assay was performed by pre-incubating serial dilutions of test compounds with the target HDAC prior to initiation with substrate. Each compound was titrated in a 10-point dose response, using a 1:3 fold dilution scheme, with 0.15 ul of solution added by ECHO555 to the plate, followed by the addition of 20 μl of the appropriate HDAC isoform diluted in appropriate assay buffer. […] Final conditions used for each assay were: 1. HDAC 1, 0.3 nM total enzyme, 20 μM substrate BML-K1104; 2. HDAC 2, 1.5 nM total enzyme, 40 μM substrate BML-K1104; 3. HDAC 3/SMRT, 0.3 nM total enzyme, 20 μM substrate BML-K1104; 4. HDAC 6, 1.3 nM total enzyme, 2.5 μM substrate BML-K1104; 5. HDAC 8, 1.3 nM total enzyme, 200 μM substrate BML-K1178; the final high dose of test compound was 30 μM. For potent compounds, 900 nM was used as the final high dose. The reactions were stopped and developed by addition of 30 ul of HDAC developer solution containing a saturating level of HDAC inhibitor as follows: 1.

## N[C@@H](COCCCC(=O)c1ccon1)c1ncc(-c2ccccc2F)[nH]1 [Compound 2, (R)-4-(2-amino-2-(5-(2-fluorophenyl)-1H-imidazol-2-yl)ethoxy)-1-(isoxazol-3-yl)butan-1-one]
  pIC50: < 6.05

## CCC(=O)CCCOC[C@H](NC(=O)c1cncs1)c1ncc(-c2cc3ccccc3nc2OC)[nH]1 [Compound 5, N-{(1R)-1-[5-(2-methoxyquinolin-3-yl)-1H-imidazol-2-yl]-2-[(4-oxohexyl)oxy]ethyl}-1,3-thiazole-5-carboxamide]
  pIC50: < 4.35

## CCC(=O)CCCOC[C@H](NC(=O)C12CCN(CC1)CC2)c1ncc(-c2cc3ccccc3nc2OC)[nH]1 [Compound 6, N-{(1R)-1-[5-(2-methoxyquinolin-3-yl)-1H-imidazol-2-yl]-2-[(4-oxohexyl)oxy]ethyl}-1-azabicyclo[2.2.2]octane-4-carboxamide]
  pIC50: < 4.35

## CCC(=O)CCCOC[C@H](NC(=O)[C@H]1CC12CCN(CC)CC2)c1ncc(-c2cc3ccccc3nc2OC)[nH]1 [Compound 7, (1S)-6-ethyl-N-{(1R)-1-[5-(2-methoxyquinolin-3-yl)-1H-imidazol-2-yl]-2-[(4-oxohexyl)oxy]ethyl}-6-azaspiro[2.5]octane-1-carboxamide]
  pIC50: 4.72

## CNC(=O)C(=O)CCCOC[C@H](NC(=O)c1cncs1)c1ncc(-c2cc3ccccc3nc2OC)[nH]1 [Compound 8, N-[(1R)-1-[5-(2-methoxyquinolin-3-yl)-1H-imidazol-2-yl]-2-{[5-(methylamino)-4,5-dioxopentyl]oxy}ethyl]-1,3-thiazole-5-carboxamide]
  pIC50: 5.29

## CNC(=O)C(=O)CCCOC[C@H](NC(=O)C12CCN(CC1)CC2)c1ncc(-c2cc3ccccc3nc2OC)[nH]1 [Compound 9, N-[(1R)-1-[5-(2-methoxyquinolin-3-yl)-1H-imidazol-2-yl]-2-{[5-(methylamino)-4,5-dioxopentyl]oxy}ethyl]-1-azabicyclo[2.2.2]octane-4-carboxamide]
  pIC50: < 4.35

## COc1nc2ccccc2cc1-c1cnc([C@H](COCCCC(=O)c2ncco2)NC(=O)c2cncs2)[nH]1 [Compound 10, N-{(1R)-1-[5-(2-methoxyquinolin-3-yl)-1H-imidazol-2-yl]-2-[4-(1,3-oxazol-2-yl)-4-oxobutoxy]ethyl}-1,3-thiazole-5-carboxamide]
  pIC50: < 4.35

## COc1nc2ccccc2cc1-c1cnc([C@H](COCCCC(=O)c2ncco2)NC(=O)[C@H]2CC23CCN(C)CC3)[nH]1 [Compound 11, (1S)-N-{(1R)-1-[5-(2-methoxyquinolin-3-yl)-1H-imidazol-2-yl]-2-[4-(1,3-oxazol-2-yl)-4-oxobutoxy]ethyl}-6-methyl-6-azaspiro[2.5]octane-1-carboxamide]
  pIC50: < 4.35

## COc1nc2ccccc2cc1-c1cnc([C@H](COCCCC(=O)c2ncco2)NC(=O)C23CCN(CC2)CC3)[nH]1 [Compound 12, N-{(1R)-1-[5-(2-methoxyquinolin-3-yl)-1H-imidazol-2-yl]-2-[4-(1,3-oxazol-2-yl)-4-oxobutoxy]ethyl}-1-azabicyclo[2.2.2]octane-4-carboxamide]
  pIC50: < 4.35

## COc1nc2ccccc2cc1-c1cnc([C@H](COCCCC(=O)c2ncco2)NC(=O)CN(C)C)[nH]1 [Compound 13, N-{(1R)-1-[5-(2-methoxyquinolin-3-yl)-1H-imidazol-2-yl]-2-[4-(1,3-oxazol-2-yl)-4-oxobutoxy]ethyl}-N~2~,N~2~- dimethylglycinamide]
  pIC50: < 4.35

## COc1nc2ccccc2cc1-c1cnc([C@H](COCCCC(=O)c2ccon2)NC(=O)CN(C)C)[nH]1 [Compound 14, N-{(1R)-2-(4-isoxazol-3-yl-4-oxobutoxy)-1-[5-(2-methoxyquinolin-3-yl)-1H-imidazol-2-yl]ethyl}-N~2~,N~2~- dimethylglycinamide]
  pIC50: < 4.35

## CN1CC(C(=O)N[C@@H](COCCCC(=O)c2ccon2)c2ncc(-c3ccccc3F)[nH]2)C1 [Compound 15, N-[(1R)-1-[5-(2-fluorophenyl)-1H-imidazol-2-yl]-2-(4-isoxazol-3-yl-4-oxobutoxy)ethyl]-1-methylazetidine-3-carboxamide]
  pIC50: < 6.05
